Tests used:
METTL3 = target: T1, METTL3 (Homo sapiens, UniProt Q86U44); test: Cellular degradation assay (Western blot), METTL3 in MOLM-13; type: cell-based; details: MOLM-13, 24 h, 2 μM compound
T1 construct: METTL3–14 degradation up to 70% of the endogenous level; endogenous in cells; host or cells: MOLM-13, PC3, DU145
Procedure: (§1) MOLM-13, NOMO-1, THP-1, Kasumi-1, PC3, and DU145 cell lines were obtained from DSMZ-German Collection of Microorganisms and Cell Cultures GmbH. Cells were cultured in RPMI 1640 medium (11875093, Thermo Fisher Scientific) containing 10% FBS (16140071, Thermo Fisher Scientific) and 1% penicillin-streptomycin (15140122, Thermo Fisher Scientific) in 5% CO2 at 37 °C in a humidified incubator, with maintained cell densities at 0.5–1 × 10^6 cells/mL. All cell lines were tested negative for mycoplasma contamination (PCR-based assay by Microsynth, Switzerland).
(§2) METTL3 (and METTL14) protein degradation was monitored by Western blot. Cells were treated with the indicated concentration of PROTACs or DMSO control (0.1% (v/v)) for 24h, 37 °C with 5% CO2. Samples were then collected and lysed with RIPA buffer with added protease inhibitors (11697498001, Roche). After SDS-PAGE, proteins were transferred to a nitrocellulose membrane, blocked (with 5% milk, 0.5% BSA in TBST buffer), and incubated overnight with primary antibodies. The following antibodies were used: GAPDH (no. 2118, Cell Signaling, 1:4000), β-actin (ab8226, Abcam, 1:2000), METTL3 (ab195352, Abcam, 1:1000), and METTL14 (ab220031, Abcam, 1:1000). Membranes were scanned using an LI-COR Odyssey DLx imager after incubation with appropriate secondary antibodies (antimouse IgG IRDye 680RD (926–68072, LI-COR, 1:10000) and goat anti-Rabbit IgG IRDye 800CW (926–32211, LI-COR, 1:10000)). Densitometry was performed in Image Studio Lite software and analyzed in GraphPad Prism 9.

METTL14 = test: Cellular degradation assay (Western blot), METTL14 in MOLM-13; type: cell-based, human; details: MOLM-13, 24 h, 2 μM compound
Procedure: as §1, §2

[1] = target: T2, ternary complex CRBN/PROTAC/METTL3–14 (Homo sapiens, UniProt Q86U44+Q96SW2); test: FRET-based ternary complex formation assay (TCFA); type: binding; details: for TCFA amplitude (mean ± SEM): Hook curve amplitude, fraction of the maximum of compound 16; for ECmax (nM) ± SD: PROTAC concentration at the maximum of the signal in the TCFA; for ECmax: TCFA, peak of the Hook curve
T2 construct: methyltransferase domains (MTD) of METTL3 (residues 354–580); His6 (N, cleaved yes); made in house; host or cells: METTL3-MTD/METTL14-MTD: baculovirus/Sf9; CRBN-TBD: E. coli Rosetta (DE3), co-expressed with BirA
Procedure: For protein expression, suspension cultures of Sf9 cells in […] medium (Thermo Fisher) were infected at a density of 2 × 10^6 mL^–1. […] The complex was further purified by size exclusion chromatography using a Superdex 200 Increase 10/300 GL column (Cytiva) in 20 mM Tris-Cl, pH 8.0, and 200 mM KCl. The complex was aliquoted and flash-frozen in liquid nitrogen and stored at −80 °C until further use.
Ternary complex formation between the PROTACs, METTL3, and CRBN was quantified by a homogeneous time-resolved fluorescence (HTRF)-based enzyme assay. […] Curves of titrations with the PROTACs were plotted in GraphPad Prism 9.5.1 and fitted with a Gaussian function, if appropriate. […] CRBN^TBD-Avi(biotin) was used at a final concentration of 10 nM. […] Anti-GST Eu^3+-labeled antibody (Cisbio, 61GSTKLB) was used at a final concentration of 0.8 nM. The final reaction volume was 20 μL in 50 mM HEPES (pH 7.5), 150 mM NaCl, 0.1% BSA, 100 mM KF. […] The ratio of the emissions [drawing 1] was considered for further analysis. […] The concentrations resulting in the maximum signal (ECmax) and the amplitudes of the Hook curves were determined from the parameters of the Gaussian fit (if appropriate) or as the coordinates of the data-point with the highest TR-FRET signal.
For the ternary complex formation assay (TCFA), one of the protein partners must have a GST-tag and the other a biotin-tag.

METTL3-14 = METTL3-14 (Homo sapiens, UniProt Q86U44); test: biochemical; parameters: with the full-length complex, the recombinant complex construct pFastBacDual-StrepII-GFP-TEV-METTL3-His-TEV-METTL14 was expressed; StrepII (N); GFP (N); TEV site (N); made in house; host or cells: baculovirus/Sf9 insect cells; details: inhibition of catalytic activity of METTL3-14, binary FRET assay
Text: For determining the half maximal inhibitory concentration (IC50) with the full-length complex, the recombinant complex construct pFastBacDual-StrepII-GFP-TEV-METTL3-His-TEV-METTL14 was expressed using the baculovirus/Sf9 insect cell expression system and purified as described previously.[21]
The inhibitory potencies of the PROTACs for METTL3 were quantified by a homogeneous time-resolved fluorescence (HTRF)-based enzyme assay as previously described.[40]

[2] = Cell viability assay (CellTiter-Glo) on MOLM-13; type: cell-based; details: human, MOLM-13 cells, average of two biological replicates; for viability at 72 h, […]: 2.5 µM
Procedure: as §1
Cell viability was determined using a CellTiter-Glo luminescent cell viability assay (Promega) based on the detection of ATP according to the manufacturer’s instructions. 100 μL of the reagent was added to each well and incubated for 10 min at room temperature. […] Background luminescence value was obtained from wells containing the CellTiter-Glo reagent and medium without cells. The resulting data was analyzed in GraphPad Prism 9.

T1 sequence (Q86U44 2-580 limits assumed): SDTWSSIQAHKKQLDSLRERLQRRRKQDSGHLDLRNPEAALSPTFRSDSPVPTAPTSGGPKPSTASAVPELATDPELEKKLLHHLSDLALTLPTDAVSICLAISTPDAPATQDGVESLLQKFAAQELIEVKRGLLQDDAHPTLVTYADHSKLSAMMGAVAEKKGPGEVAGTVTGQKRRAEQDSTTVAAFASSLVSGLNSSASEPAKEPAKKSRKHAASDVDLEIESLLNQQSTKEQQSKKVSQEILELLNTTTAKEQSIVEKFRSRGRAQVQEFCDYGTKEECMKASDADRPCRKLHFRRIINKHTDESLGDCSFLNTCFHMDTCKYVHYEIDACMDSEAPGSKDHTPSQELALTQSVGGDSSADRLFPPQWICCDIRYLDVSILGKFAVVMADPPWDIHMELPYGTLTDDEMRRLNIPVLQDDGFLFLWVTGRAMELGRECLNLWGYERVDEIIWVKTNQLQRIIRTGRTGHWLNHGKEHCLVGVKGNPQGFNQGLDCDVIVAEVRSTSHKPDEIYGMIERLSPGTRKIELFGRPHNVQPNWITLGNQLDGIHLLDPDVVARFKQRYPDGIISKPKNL
T1 sequence (Q9HCE5 whole entry partner): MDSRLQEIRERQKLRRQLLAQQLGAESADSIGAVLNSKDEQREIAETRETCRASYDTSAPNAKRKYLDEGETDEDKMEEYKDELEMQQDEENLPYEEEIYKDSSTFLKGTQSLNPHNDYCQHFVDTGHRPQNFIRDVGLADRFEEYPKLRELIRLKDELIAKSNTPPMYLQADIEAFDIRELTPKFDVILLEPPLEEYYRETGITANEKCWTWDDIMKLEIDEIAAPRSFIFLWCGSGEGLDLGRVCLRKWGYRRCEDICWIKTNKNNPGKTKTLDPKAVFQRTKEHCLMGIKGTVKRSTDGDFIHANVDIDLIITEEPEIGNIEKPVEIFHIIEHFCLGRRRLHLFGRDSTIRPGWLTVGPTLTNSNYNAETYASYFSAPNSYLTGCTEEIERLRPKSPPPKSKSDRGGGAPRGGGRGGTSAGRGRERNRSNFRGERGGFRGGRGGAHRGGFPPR
T2 sequence (Q86U44 354-580): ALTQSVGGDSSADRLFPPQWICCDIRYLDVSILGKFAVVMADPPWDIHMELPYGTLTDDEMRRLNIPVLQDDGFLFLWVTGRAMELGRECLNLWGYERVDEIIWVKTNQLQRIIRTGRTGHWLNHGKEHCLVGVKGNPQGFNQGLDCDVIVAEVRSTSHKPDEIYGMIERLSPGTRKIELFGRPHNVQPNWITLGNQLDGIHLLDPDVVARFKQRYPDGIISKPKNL
T2 sequence (Q9HCE5 107-395 partner limits assumed): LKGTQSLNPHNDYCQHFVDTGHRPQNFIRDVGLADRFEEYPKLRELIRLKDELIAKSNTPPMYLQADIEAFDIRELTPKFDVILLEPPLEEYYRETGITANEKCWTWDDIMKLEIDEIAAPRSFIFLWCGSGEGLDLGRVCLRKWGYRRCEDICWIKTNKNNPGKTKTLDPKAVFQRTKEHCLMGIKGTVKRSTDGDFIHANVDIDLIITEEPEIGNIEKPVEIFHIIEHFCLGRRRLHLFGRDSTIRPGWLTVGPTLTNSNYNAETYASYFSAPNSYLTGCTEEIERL
T2 sequence (Q96SW2 318-442): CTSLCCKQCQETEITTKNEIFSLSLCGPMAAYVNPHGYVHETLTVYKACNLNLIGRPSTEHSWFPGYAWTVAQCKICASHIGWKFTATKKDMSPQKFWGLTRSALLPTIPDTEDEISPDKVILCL
Chain of METTL3-14 (Q86U44 whole entry): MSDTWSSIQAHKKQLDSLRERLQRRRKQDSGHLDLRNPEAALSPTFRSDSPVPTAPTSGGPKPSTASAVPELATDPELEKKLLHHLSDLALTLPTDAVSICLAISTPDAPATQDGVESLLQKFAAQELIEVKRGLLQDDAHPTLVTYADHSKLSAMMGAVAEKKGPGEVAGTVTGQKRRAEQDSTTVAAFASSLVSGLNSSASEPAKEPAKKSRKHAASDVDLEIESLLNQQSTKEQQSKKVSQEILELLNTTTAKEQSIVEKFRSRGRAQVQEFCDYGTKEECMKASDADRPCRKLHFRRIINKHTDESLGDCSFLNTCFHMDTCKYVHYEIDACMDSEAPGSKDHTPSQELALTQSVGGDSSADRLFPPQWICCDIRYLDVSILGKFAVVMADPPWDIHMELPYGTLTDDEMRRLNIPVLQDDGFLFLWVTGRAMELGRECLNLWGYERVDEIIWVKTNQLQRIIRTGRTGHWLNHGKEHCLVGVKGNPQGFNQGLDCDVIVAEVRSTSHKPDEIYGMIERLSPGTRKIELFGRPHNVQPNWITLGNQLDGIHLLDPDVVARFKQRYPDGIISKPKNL
Chain of METTL3-14 (Q9HCE5 whole entry, further chain): as the sequence (Q9HCE5 whole entry partner) above

Row | Structure (SMILES) | MOLM-13 West. blot at 24h 2 μM comp conc. Degradation (%) of METTL3 (METTL3) | MOLM-13 West. blot at 24h 2 μM comp conc. Degradation (%) of METTL14 (METTL14) | TCFA amplitude (mean ± SEM) [1] | ECmax (nM) ± SD [1] | IC50 (METTL3-14) [nM] | ECmax [1] | viability at 72 h, 10 µM [2] [%] | viability at 72 h, 0.6 µM [2] [%] | viability at 72 h, 1.25 µM [2] [%] | viability at 72 h, […] [2] [%] | viability at 72 h, 5 µM [2] [%]
1 | CC1(C)CCN(Cc2ccc(N3CC(=O)NC4(CCN(c5cc(NCCCNC(=O)CCCCCCCCCCNc6cccc7c6CN(C6CCC(=O)NC6=O)C7=O)ncn5)CC4)C3)cc2)CC1 (stereo not shown) [Compound 6] | / (Degradation <10% or stabilization) | / (Degradation <10% or stabilization) | 0.4 | 3600 (n = 1) nM | 520 ± 60 |  |  |  |  |  | 
2 | CC1(C)CCN(Cc2ccc(N3CC(=O)NC4(CCN(c5cc(NCCCNC(=O)CCCCCCCCCCCCCCNc6cccc7c6CN(C6CCC(=O)NC6=O)C7=O)ncn5)CC4)C3)cc2)CC1 (stereo not shown) [Compound 7] | / (Degradation <10% or stabilization) | / (Degradation <10% or stabilization) | 0.1 | 5300 (n = 1) nM | 1220 ± 90 |  |  |  |  |  | 
3 | CC1(C)CCN(Cc2ccc(N3CC(=O)NC4(CCN(c5cc(NCCCNC(=O)CCCCCCCCCCn6cc(CNc7cccc8c7C(=O)N(C7CCC(=O)NC7=O)C8=O)nn6)ncn5)CC4)C3)cc2)CC1 (stereo not shown) [Compound 8] | / (Degradation <10% or stabilization) | / (Degradation <10% or stabilization) | 0.6 | 2200 (n = 1) nM | 480 ± 100 |  |  |  |  |  | 
4 | CC1(C)CCN(Cc2ccc(N3CC(=O)NC4(CCN(c5cc(NCCCNC(=O)CCCCCCCCn6cc(CNc7cccc8c7C(=O)N(C7CCC(=O)NC7=O)C8=O)nn6)ncn5)CC4)C3)cc2)CC1 (stereo not shown) [Compound 9] | / (Degradation <10% or stabilization) | / (Degradation <10% or stabilization) | 0.4 | 6700 (n = 1) nM | 1800 ± 290 |  |  |  |  |  | 
5 | CC1(C)CCN(Cc2cc(F)c(N3CC(=O)NC4(CCN(c5cc(NCCCNC(=O)CCCCCCCCNc6cccc7c6CN(C6CCC(=O)NC6=O)C7=O)ncn5)CC4)C3)cc2F)CC1 (stereo not shown) [Compound 10] | 18 ± 6% | 18 ± 16% | 1.0 ± 0.0 | 200 ± 110 nM | 66 ± 10 | below 1 μM | 86.6 |  |  |  | 
6 | CC1(C)CCN(Cc2cc(F)c(N3CC(=O)NC4(CCN(c5cc(NCCCNC(=O)CCCCCCCCCCNc6cccc7c6CN(C6CCC(=O)NC6=O)C7=O)ncn5)CC4)C3)cc2F)CC1 (stereo not shown) [Compound 11] | / (Degradation <10% or stabilization) | 17 ± 22% | 0.3 ± 0.0 | 910 ± 40 nM | 300 ± 40 | below 1 μM | 84.6 |  |  |  | 
7 | CC1(C)CCN(Cc2cc(F)c(N3CC(=O)NC4(CCN(c5cc(NCCCNC(=O)CCCCCCCCn6cc(CNc7cccc8c7C(=O)N(C7CCC(=O)NC7=O)C8=O)nn6)ncn5)CC4)C3)cc2F)CC1 (stereo not shown) [Compound 12] | / (Degradation <10% or stabilization) | 11 ± 27% | 0.7 ± 0.1 | 320 ± 160 nM | 67 ± 21 | below 1 μM | 94.3 |  |  |  | 
8 | CC1(C)CCN(Cc2cc(F)c(N3CC(=O)NC4(CCN(c5cc(NCCCNC(=O)CCCCCCCCCCn6cc(CNc7cccc8c7C(=O)N(C7CCC(=O)NC7=O)C8=O)nn6)ncn5)CC4)C3)cc2F)CC1 (stereo not shown) [Compound 13] | 19 ± 20% | 19 ± 13% | 0.8 ± 0.0 | 1800 ± 250 nM | 220 ± 40 |  |  |  |  |  | 
9 | CC1(C)CCN(Cc2cc(F)c(N3CC(=O)NC4(CCN(c5cc(NCc6cccc(CNC(=O)CCCCCNc7cccc8c7C(=O)N(C7CCC(=O)NC7=O)C8=O)c6)ncn5)CC4)C3)cc2F)CC1 (stereo not shown) [Compound 15] | / (Degradation <10% or stabilization) | / (Degradation <10% or stabilization) | 0.8 ± 0.1 | 640 ± 30 nM | 33 ± 4 |  | 84.6 | 91.2 | 94.8 | 97.2 | 89.4
10 | CC1(C)CCN(Cc2cc(F)c(N3CC(=O)NC4(CCN(c5cc(NCc6cccc(CNC(=O)CCCCCCCCNc7cccc8c7CN(C7CCC(=O)NC7=O)C8=O)c6)ncn5)CC4)C3)cc2F)CC1 (stereo not shown) [Compound 16] | 24 ± 14% | 39 ± 13% | 1.0 ± 0.0 | 430 ± 180 nM | 67 ± 11 |  | 103 |  |  |  | 
11 | CC1(C)CCN(Cc2cc(F)c(N3CC(=O)NC4(CCN(c5cc(NCc6cccc(CNC(=O)CCCCCCCCCCNc7cccc8c7CN(C7CCC(=O)NC7=O)C8=O)c6)ncn5)CC4)C3)cc2F)CC1 (stereo not shown) [Compound 17] | / (Degradation <10% or stabilization) | 13 ± 6% | 1.0 ± 0.0 | 920 ± 160 nM | 160 ± 20 |  | 106 | 106 | 109 | 112 | 106
12 | CC1(C)CCN(Cc2cc(F)c(N3CC(=O)NC4(CCN(c5cc(NCc6cccc(CNC(=O)CCn7cc(CNc8cccc9c8C(=O)N(C8CCC(=O)NC8=O)C9=O)nn7)c6)ncn5)CC4)C3)cc2F)CC1 (stereo not shown) [Compound 18] | 19 ± 13% | 30 ± 12% | 0.6 ± 0.1 | 80 ± 0 nM | 14 ± 3 |  | 105 | 101 | 105 | 104 | 102
